Data reported in patent US10023557B2 (LifeSci Pharmaceuticals, Inc., priority 2015, dated 2018).

Key:
human plasma kallikrein = human plasma kallikrein (Homo sapiens (Human), UniProt P03952); assay: In vitro enzyme inhibition of human plasma kallikrein (PFR-AMC cleavage); format: biochemical; settings: Pro-Phe-Arg-AMC substrate, 37° C., read-out: hPK IC50
In short: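 Human plasma kallikrein and compound, diluted in 50 mM Tris-HCl pH 7.5, 150 mM NaCl, 0.01% Triton X-100, preincubated 5 min at 37 °C before PFR-AMC was added.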

[1] = target: cellular kallikrein activity (Homo sapiens (Human), UniProt P03952); assay: In vitro cellular assay (contact assay): kallikrein activity in ellagic acid-activated human plasma, Z-FR-2-AMC substrate; format: biochemical; settings: human plasma activated with ellagic acid, 37° C.
cellular kallikrein activity, sequence (P03952 391-638): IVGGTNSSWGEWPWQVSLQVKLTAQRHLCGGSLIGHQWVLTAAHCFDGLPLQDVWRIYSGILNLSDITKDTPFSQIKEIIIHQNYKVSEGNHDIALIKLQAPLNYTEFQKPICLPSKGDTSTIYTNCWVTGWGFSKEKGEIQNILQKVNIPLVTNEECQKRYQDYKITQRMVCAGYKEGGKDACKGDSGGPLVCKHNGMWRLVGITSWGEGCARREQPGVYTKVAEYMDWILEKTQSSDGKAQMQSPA
cellular kallikrein activity, sequence (P03952 20-390 partner): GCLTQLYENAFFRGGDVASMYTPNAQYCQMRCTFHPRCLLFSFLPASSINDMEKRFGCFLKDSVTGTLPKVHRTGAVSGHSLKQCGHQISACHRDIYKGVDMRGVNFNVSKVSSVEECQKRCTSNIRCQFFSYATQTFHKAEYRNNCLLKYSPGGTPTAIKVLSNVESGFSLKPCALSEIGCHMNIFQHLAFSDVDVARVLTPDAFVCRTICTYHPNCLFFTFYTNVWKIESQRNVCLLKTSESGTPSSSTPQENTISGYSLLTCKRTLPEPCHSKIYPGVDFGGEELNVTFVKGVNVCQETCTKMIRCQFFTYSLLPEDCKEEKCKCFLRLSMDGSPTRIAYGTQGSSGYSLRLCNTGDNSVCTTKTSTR

human plasma kallikrein, sequence (P03952 391-638): as the sequence (P03952 391-638) above
human plasma kallikrein, sequence (P03952 20-390 partner): as the sequence (P03952 20-390 partner) above

| SMILES | IC50 (human plasma kallikrein) [nM] | EC50 [1] [nM] |
| --- | --- | --- |
| O=C(NCc1cc2c(Cl)c[nH]c2cc1F)c1ccnc(Cc2ccc3ncc(C(F)(F)F)cc3c2)c1 [Example 230, N-((3-chloro-6-fluoro-1H-indol-5-yl)methyl)-2-((3-(trifluoromethyl)quinolin-6-yl)methyl)isonicotinamide] | < 100 | 100 to 1000 |
| Nc1nccc2c(F)c(CNC(=O)c3ccnc(Cc4ccc5ncc(Cl)cc5c4)c3)ccc12 [Example 178, N-((1-amino-5-fluoroisoquinolin-6-yl)methyl)-2-((3-chloroquinolin-6-yl)methyl)isonicotinamide] | < 100 | < 100 |
| CC(C)(O)c1cc(Cc2cc(C(=O)NCc3cc4c(Cl)c[nH]c4cc3F)ccn2)cc2cc(Cl)cnc12 [Example 221, N-((3-chloro-6-fluoro-1H-indol-5-yl)methyl)-2-((3-chloro-8-(2-hydroxypropan-2-yl)quinolin-6-yl)methyl)isonicotinamide] | < 100 | 100 to 1000 |
| Nc1nccc2cc(CNC(=O)c3ccnc(Cc4ccc5ncc(C(F)(F)F)cc5c4)c3)c(F)cc12 [Example 182, N-((1-amino-7-fluoroisoquinolin-6-yl)methyl)-2-((3-(trifluoromethyl)quinolin-6-yl)methyl)isonicotinamide] | < 100 | 100 to 1000 |
| O=C(NCc1ccc2[nH]cc(Cl)c2c1F)c1ccnc(Cc2ccc3ncc(C4CC4)cc3c2)c1 [Example 248, N-((3-chloro-4-fluoro-1H-indol-5-yl)methyl)-2-((3-cyclopropylquinolin-6-yl)methyl)isonicotinamide] | < 100 | 100 to 1000 |

Further lines, results first:

| IC50 (human plasma kallikrein) [nM] | EC50 [1] [nM] | SMILES |
| --- | --- | --- |
| < 100 | 100 to 1000 | Cc1cc(CN)nc(C)c1CNC(=O)c1ccnc(Cc2ccc3ncc(Cl)cc3c2)c1 [Example 171, N-((6-(aminomethyl)-2,4-dimethylpyridin-3-yl)methyl)-2-((3-chloroquinolin-6-yl)methyl)isonicotinamide] |
| < 100 | < 100 | Cc1nc(N)ccc1CNC(=O)c1ccnc(Cc2ccc3ncc(C(F)(F)F)cc3c2)c1 [Example 229, N-((6-amino-2-methylpyridin-3-yl)methyl)-2-((3-(trifluoromethyl)quinolin-6-yl)methyl)isonicotinamide] |
| < 100 | < 100 | Cc1cc(N)nc(C)c1CNC(=O)c1ccnc(Cc2ccc3nc(C)c(Cl)cc3c2)c1 [Example 238, N-((6-amino-2,4-dimethylpyridin-3-yl)methyl)-2-((3-chloro-2-methylquinolin-6-yl)methyl)isonicotinamide] |
| < 100 | 100 to 1000 | Cc1cc(N)nc(C)c1CNC(=O)c1ccnc(C(O)c2ccc3ncc(Cl)cc3c2)c1 (stereo not drawn) [Example 275, N-((6-amino-2,4-dimethylpyridin-3-yl)methyl)-2-((3-chloroquinolin-6-yl)(hydroxy)methyl)isonicotinamide] |
| < 100 | < 100 | CCCc1cnc2ccc(Cc3cc(C(=O)NCc4c(C)cc(N)nc4C)ccn3)cc2c1 [Example 255, N-((6-amino-2,4-dimethylpyridin-3-yl)methyl)-2-((3-propylquinolin-6-yl)methyl)isonicotinamide] |
| < 100 | < 100 | Cc1cc(N)nc(C)c1CNC(=O)c1ccnc(Cc2cc(S(N)(=O)=O)c3ncc(Cl)cc3c2)c1 [Example 235, N-((6-amino-2,4-dimethylpyridin-3-yl)methyl)-2-((3-chloro-8-sulfamoylquinolin-6-yl)methyl)isonicotinamide] |
| < 100 | < 100 | Cc1nc(N)ccc1CNC(=O)c1ccnc(Cc2cc(CN)c3ncc(Cl)cc3c2)c1 [Example 253, N-((6-amino-2-methylpyridin-3-yl)methyl)-2-((8-(aminomethyl)-3-chloroquinolin-6-yl)methyl)isonicotinamide] |
